Values joined by “and” are separate entries in the source; they are usually repeats but may differ in a detail not shown here. Identical values can stand only once. “Also recorded” adds a separate entry of the source.
Experiments:
[1] = test system: Leishmania (L.) amazonensis promastigotes; experiment: Ultrastructural assay (SEM and TEM); type: cell-based
Description: Scanning Electron Microscopy (SEM): Promastigotes were treated with 50 and 100 µg/mL of (+)-phyllanthidine for 4 days, and they were fixed with paraformaldehyde (4%) and glutaraldehyde (2.5%) in cacodylate buffer (0.1 M) for one hour. The cells were post-fixed in osmium tetroxide (1%), dehydrated in graded ethanol, brought to their critical point with CO2, coated with gold and analyzed in a Zeiss LEO 1450VP SEM (Göttingen, Germany).
Transmission Electron Microscopy (TEM): Promastigotes treated with 50 and 100 µg/mL (+)-phyllanthidine for 4 days were fixed with glutaraldehyde (2.5%) and paraformaldehyde (4%) in cacodylate buffer (0.1 M) for one hour. The parasites were post-fixed in an osmium tetroxide solution (1%) and ferrocyanide (0.8%), dehydrated in graded acetone and embedded in epoxy resin. Ultrathin sections were obtained, stained with uranyl acetate/lead citrate and examined with a Zeiss 906E TEM (Göttingen, Germany).

[2] = Cytotoxicity assay of host cells (MTT); type: cell-based, mouse BALB/c (Mus musculus); conditions: male, BALB/c, mouse, peritoneal macrophages
Description: (§1) Macrophages were obtained from the peritoneal cavity of male mouse BALB/c (Mus musculus), and the animals were sacrificed in a CO2 chamber (Insight®). The material was harvested with Hank’s solution, concentrated by centrifugation at 4 °C, cultured in a 24-well plate and incubated in an atmosphere containing 5% CO2 at 37 °C for 1 h. After that, non-adherent cells were washed with DMEM and incubated for 24 h with DMEM medium supplemented with 10% FBS. The experimental protocol was approved by the Committee on the Ethics of Animal Experiments (CEPAE, grant number 046-2015) of Universidade Federal do Pará.
(§2) MTT is a tetrazolium salt that is converted into blue formazan crystals that are insoluble in water after cleavage by mitochondrial dehydrogenases, which causes them to accumulate in viable cells. The procedure was performed according to Fotakis and Timbrell (2006), with some modifications. Macrophages treated with 10, 20, 50, 100 and 200 µg/mL of (+)-phyllanthidine for 48 h and untreated cells were incubated with MTT (0.5 mg/mL) dissolved in phosphate-buffered saline (PBS), pH 7.2 for 3 h in a humidified atmosphere containing 5% CO2 at 37 °C. […] The absorbance of each solution was recorded at an optical density (OD) of 570 nm using a spectrophotometer (Bio-Rad Model 450 Microplate Reader). The assay specificity was determined by using non-viable cells treated with 10% formaldehyde in PBS. […]

[3] = test system: peritoneal macrophages; experiment: Cytotoxicity assay of host cells (MTT); type: cell-based, mouse BALB/c (Mus musculus); conditions: 10-200 µg/mL, 48 h
Description: as §1, §2

[4] = test system: Leishmania (L.) amazonensis amastigotes; experiment: Anti-amastigote assay in infected peritoneal macrophages; type: cell-based; conditions: for parasite (amastigote) reduction: infected macrophages, vs untreated cells
Description: as §1
Adherent peritoneal macrophages were infected with Leishmania (L.) amazonensis promastigotes (stationary growth phase) at a parasite/macrophage ratio of 10:1 and incubated for 3 h at 37 °C and 5% CO2. After 3 h, free parasites were removed by washing with PBS pH 7.2, and the cultures were treated with 50 and 100 µg/mL (+)-phyllanthidine for 48 h post infection, without replacing the culture medium. The cells were washed with PBS pH 7.2, fixed with methanol and stained with Giemsa. The number of parasites was determined by examining three cover slips for each treatment. At least 100 infected macrophages were counted, and the results were expressed as the survival percentage, in comparison with controls. Amphotericin B (0.5 µg/mL) was used as a positive control. The selectivity index (SI) was calculated as the ratio between the cytotoxicity and antiparasitic activity against intracellular amastigotes.

[5] = test system: Leishmania (L.) amazonensis promastigotes; experiment: Anti-promastigote assay (MTT); type: cell-based
Description: Promastigotes from Leishmania (L.) amazonensis (MHOM/BR/26361) were obtained in NNN (Neal, Novy and Nicolle) medium from the Instituto Evandro Chagas and subsequently maintained in RPMI medium supplemented with 10% heat-inactivated fetal bovine serum (FBS) at 25 °C.
Leishmania (L.) amazonensis promastigotes (10^6 parasites/mL) were seeded in 24-well plates with RPMI medium without phenol, the medium was supplemented with 10% FBS, and the cells were then treated with different concentrations of (+)-phyllanthidine (10, 20, 50, 100 and 200 µg/mL). The cultures were incubated at 25 °C for 4 days without medium replacement. Every 24 h, aliquots were harvested and promastigotes were incubated with 20 µL of MTT (2 µg/mL) for 4 h. Then, 20 µL of DMSO was added to the wells, and the plate was allowed to shake for 30 min for complete solubilization. One known anti-leishmanial drug (Amphotericin B—0.5 µg/mL) was used as a positive control.

[6] = test system: L. major-infected cell; set-up: method as in PMID 16143535; conditions: compared with non-infected conditions; cited from earlier work
[7] = test system: L. (V) braziliensis promastigote forms; set-up: method as in PMID 19489596; conditions: cited from earlier work
[8] = test system: L. (V.) peruviana promastigote forms; set-up: method as in PMID 19489596; conditions: cited from earlier work
[9] = test system: L. mexicana; set-up: method as in doi:10.1080/13880200600878361; conditions: cited from earlier work
[10] = test system: Leishmania amazonensis; set-up: method as in PMID 19748254; conditions: cited from earlier work
[11] = test system: L. braziliensis; set-up: method as in PMID 19748254; conditions: cited from earlier work
[12] = test system: Leishmania infected-macrophages; set-up: method as in PMID 18164321; conditions: 250 μM; cited from earlier work
[13] = test system: L. (L.) amazonensis amastigote form; set-up: method as in PMID 20661748; conditions: 79 μM, 72 h; cited from earlier work
[14] = test system: L. (L.) amazonensis promastigote; conditions: 72 h of treatment; cited from earlier work

O=C1C=C2C=CC3CC2(O1)C1CCCCN1O3 (single isomer, unassigned; (+)) [(+)-phyllanthidine]
promastigote ultrastructural changes (TEM) ([1]; 50 µg/mL, 96 h): kinetoplast swelling | promastigote ultrastructural changes (TEM) ([1]; 100 µg/mL): increase in the number of acidocalcisome-like structures | CC50 at 48 h [2]: > 200 µg/mL | cytotoxic effect on macrophages [3]: no cytotoxic effects on macrophages; also recorded: No cytotoxic effect was detected | parasite (amastigote) reduction ([4]; 50 μg/mL, 48 h): 75.5% | parasite (amastigote) reduction ([4]; 100 μg/mL, 48 h): 83.96% | IC50 ([4]; Leishmania, Peritoneal macrophage, 48 h of treatment): 49.1 µg/mL and 210 µM | selectivity index (SI) ([4]; ratio between cytotoxicity (macrophages) and activity against intracellular amastigotes): 25.08 | IC50 ([5]; Leishmania, 96 h, 96 h of treatment): 82.4 µg/mL and 353 µM | inhibition at 100 µg/mL ([5]; Leishmania, 100 µg/mL, 96 h of treatment, read-out: inhibition of promastigote growth): 67.7%

C[C@@H]1[C@H](O)[C@@H](C)/C=C/C=C/C=C/C=C/C=C/C=C/C=C/[C@H](O[C@@H]2O[C@H](C)[C@@H](O)[C@H](N)[C@@H]2O)C[C@@H]2O[C@](O)(C[C@@H](O)C[C@@H](O)[C@H](O)CC[C@@H](O)C[C@@H](O)CC(=O)O[C@H]1C)C[C@H](O)[C@H]2C(=O)O [Amphotericin B, reference compound]
amastigote reduction (positive control) ([4]; 0.5 µg/mL (0.54 µM), 48 h): 90.42% | reduction of promastigotes (positive control) ([5]; 0.5 μg/mL (0.54 µM), 96 h): 100%

O=C(O[C@@H]1O[C@@H]2COC(=O)c3cc(O)c(O)c(O)c3-c3c(cc(O)c(O)c3O)C(=O)O[C@H]([C@H]1O)[C@@H]2O)c1cc(O)c(O)c(O)c1 [Corilagin, corilagin]
iNOS and cytokine mRNA levels [6]: capable of enhancing the iNOS and cytokine mRNA levels

O=c1c(O)c(-c2ccc(O)cc2)oc2cc(O)cc(O)c12 [Kaempferol, kaempferol]
leishmanicidal activity [7]: showed leishmanicidal activity | leishmanicidal activity [8]: showed leishmanicidal activity

COC(=O)c1cc(O)c(O)c(O)c1 [Methyl galate, methyl gallate]
IC50 [9]: 33.6 µM

C=C(C)[C@@H]1CC[C@]2(C(=O)O)CC[C@]3(C)[C@H](CC[C@@H]4[C@@]5(C)CC[C@H](O)C(C)(C)[C@@H]5CC[C@]43C)[C@@H]12 [betulinic acid]
antiprotozoal activity [10]: No antiprotozoal activity | antiprotozoal activity [11]: No antiprotozoal activity

O=C(O)c1cc(O)c(O)c(O)c1 [gallic acid]
NO-production [12]: modest NO-production | parasite viability [12]: did not reduce parasite viability

CCC(C)C(=O)NC1CCC(=O)N(CCc2ccccc2)C1=O (centres unmarked) [julocrotine]
reduction of amastigote form [13]: 80% | reduction in promastigotes [14]: 54%

CCCCCCCCCCCCCCCCOP(=O)([O-])OCC[N+](C)(C)C [miltefosine, reference compound]
IC50 [9]: 0.5 µM

From paper PMC6332510, “Leishmanicidal Activity of (+)-Phyllanthidine and the Phytochemical Profile of Margaritaria nobilis (Phyllanthaceae)” (Molecules, 2015)
